Measured values published in US6916607B2, “PEPTIDES AND PO[…] FROM THE SU[…] OF THE RAT COR[…] […] COR[…] USES OF THESE PRODUCTS FOR DIAGNOSIS FOR DETECTION OR T[…]” (Institute Pasteur, priority 1988, dated 2005).

Test system: mRNA coding for SMR1 in the SMG
Test: Regulation of the accumulation of mRNA coding for SMR1 in the SMG of the rat by androgens (RNA transfer and hybridization with SMR1 cDNA probe)
Assay type: in vivo, Wistar rats
Protocol: 10 weeks old male and female Wistar rats were obtained from Iffa-Credo. The androgens were removed by castration and 10 days later 35 mg of testosterone (Sterandryl retard, Roussel) were injected by the intraperitoneal route in the cases indicated. In the cases indicated, the same dose of testosterone was administered to female rats. 8 weeks old DBA/2 and “Swiss” mice were obtained from the Pasteur Institute.
The RNA was prepared from rat and mouse tissues as described in the literature (Tronik D. et al. 1987, EMBO J. 6, 983-987). The in vitro translation of the RNAs was carried out by using the mRNA-dependent translation system as a lysate in the presence of mRNA-dependent reticulocytes (Pelham H. RB et al., 1976, Eur. J. Biochem. 67, 247-256). The products were analysed by electrophoresis on a denaturing polyacrylamide-NaDodSO4 gel. […]
Furthermore, various amounts (as indicated in the figure) of RNA from the SMG of male rats and female rats were subjected to electrophoresis on a 2% agarose-formaldehyde gel, they were transferred to filters and hybridized with the cDNA probe coding for SMR1. […] As is apparent in part B, the mRNA coding for SMR1 accumulates in very large quantities in the SMG of male Wistar rats, since an amount as low as 1.5 ng of total RNA was sufficient to give a hybridization signal. […]

C[C@]12CC[C@H]3[C@@H](CCC4=CC(=O)CC[C@@]43C)[C@@H]1CC[C@@H]2O [testosterone]
accumulation of mRNA coding for SMR1 in the SMG (adult female rats, same dose (35 mg) of testosterone): caused the accumulation of mRNA coding for SMR1 in amounts similar to that observed in the males
amount of mRNA coding for SMR1 in the SMG (castrated male rats, 35 mg testosterone by the intraperitoneal route 10 days after castration): restored the amount of mRNA coding for SMR1 to the same value as that observed in the non-castrated males
